From patent US6358885B1, “Substituted phenylheterocyclic herbicides” (Mississippi State University, priority 1992, dated 2002)

Legend:
blackgrass = test: Test B preemergence/postemergence greenhouse plant response rating 0 to 10; format: in vivo, Alopecurus myosuroides; details: 0 to 10 scale
In short: (§1)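 Planted seeds are treated preemergence with compound dissolved in a non-phytotoxic solvent, while postemergence applications go onto plants of two to eighteen cm. Plants stay in the greenhouse twelve to sixteen days and are then rated visually relative to controls.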

purple nutsedge = test: as above; format: in vivo, Cyperus rotundus; details: 0 to 10 scale
In short: as §1

wheat = test: Test C preemergence/postemergence greenhouse plant response rating 0 to 100; format: in vivo, Triticum aestivum; details: POSTEMERGENCE; for Plant response rating, Wheat: 0 to 100 scale
From the text: (§2) The compounds evaluated in this test were formulated in a non-phytoxic solvent and applied to the soil surface before plant seedlings emerged (preemergence application), to water that covered the soil surface (flood application), and to plants that were in the one-to-four leaf stage (postemergence application). A sandy loam soil was used for the preemergence and postemergence tests, while a silt loam soil was used in the flood test. Water depth was approximately 2.5 cm for the flood test and was maintained at this level for the duration of the test. Plant species in the preemergence and postemergence tests consisted of barley (Hordeum vulgare), bedstraw (Galium aparine), blackgrass (Alopecurus myosuroides), chickweed (Stellaria media), corn (Zea mays), cotton (Gossypium hirsutum), crabgrass (Digitaria sanguinalis), downy brome (Bromus tectorum), giant foxtail (Setaria faberii), lambsquarters (Chenopodium album), morningglory (Ipomoea hederacea), pigweed ([…]), rape (Brassica napus), ryegrass (Lolium multiflorum), sorghum (Sorghum bicolor), soybean (Glycine max), speedwell (Veronica persica), sugar beet (Beta vulgaris), velvetleaf (Abutilon theophrasti), wheat (Triticum aestivum), wild buckwheat (Polygonum convolvulus), and wild oat (Avena fatua). All plant species were planted one day before application of the compound for the preemergence portion-of this test. Plantings of these species were adjusted to produce plants of appropriate size for the post-emergence portion of the test. […] All plant species were grown using normal greenhouse practices. Visual evaluations of injury expressed on treated plants, when compared to untreated controls, were recorded approximately fourteen to twenty one days after application of the test compound. […] A dash (-) response means no test result.

rape = test: Test B preemergence/postemergence greenhouse plant response rating 0 to 10; format: in vivo, Brassica napus; details: 0 to 10 scale
In short: as §1

giant foxtail = test: as above; format: in vivo, Setaria faberii; details: 0 to 10 scale
In short: as §1

corn = test: Test C preemergence/postemergence greenhouse plant response rating 0 to 100; format: in vivo, Zea mays; details: POSTEMERGENCE; for Plant response rating, Corn: 0 to 100 scale
From the text: as §2

barnyardgrass = test: Test B preemergence/postemergence greenhouse plant response rating 0 to 10; format: in vivo, Echinochloa crus-galli; details: 0 to 10 scale
In short: as §1

rice = test: Test C flood test plant response rating 0 to 100; format: in vivo, Oryza sativa; details: for Plant response rating Rice Japonica: flood test species listed under POSTEMERGENCE, 0 to 100 scale
From the text: as §2

wild buckwheat = test: Test C preemergence/postemergence greenhouse plant response rating 0 to 100; format: in vivo, Polygonum convolvulus; details: POSTEMERGENCE; for Plant response rating, Wild buckwheat: 0 to 100 scale
From the text: as §2

wild oat = test: as above; format: in vivo, Avena fatua; details: POSTEMERGENCE; for Plant response rating, Wild oat: 0 to 100 scale
From the text: as §2

crabgrass = test: Test B preemergence/postemergence greenhouse plant response rating 0 to 10; format: in vivo, Digitaria spp.; details: 0 to 10 scale
In short: as §1

morningglory = test: Test C preemergence/postemergence greenhouse plant response rating 0 to 100; format: in vivo, Ipomoea hederacea; details: POSTEMERGENCE; for Plant response rating, Morningglory: 0 to 100 scale
From the text: as §2

SMILES: CC(C)OC(=O)c1cc(-c2nn3c(c2Cl)CCCC3)c(F)cc1Cl [Compound 44]
- Plant response rating, Blackgrass (blackgrass; POSTEMERGENCE, Rate 50 g/ha): 8
- Plant response rating, Blackgrass (blackgrass; POSTEMERGENCE, Rate 200 g/ha): 9
- Plant response rating, Blackgrass (blackgrass; PREEMERGENCE, Rate 50 g/ha): 4
- Plant response rating, Blackgrass (blackgrass; Rate 200 g/ha, PREEMERGENCE): 6
- Plant response rating, Nutsedge (purple nutsedge; POSTEMERGENCE, Rate 50 g/ha): 4
- Plant response rating, Nutsedge (purple nutsedge; PREEMERGENCE, Rate 50 g/ha): 0
- Plant response rating, Nutsedge (purple nutsedge; Rate 200 g/ha, POSTEMERGENCE): 8
- Plant response rating, Nutsedge (purple nutsedge; Rate 200 g/ha, PREEMERGENCE): 3
- Plant response rating, Wheat (wheat; 62 g/ha): 50
- Plant response rating, Wheat (wheat; 250 g/ha): 80
- Plant response rating (0 to 100), Wheat (wheat; Rate 4 g/ha): 20
- Plant response rating (0 to 100), Wheat (wheat; Rate 16 g/ha): 30
- Plant response rating, Rape (rape; POSTEMERGENCE, Rate 50 g/ha): 9
- Plant response rating, Rape (rape; PREEMERGENCE, Rate 50 g/ha): 2
- Plant response rating, Rape (rape; Rate 200 g/ha, POSTEMERGENCE): 10
- Plant response rating, Rape (rape; Rate 200 g/ha, PREEMERGENCE): 8
- Plant response rating, Giant foxtail (giant foxtail; POSTEMERGENCE, Rate 50 g/ha): 6
- Plant response rating, Giant foxtail (giant foxtail; PREEMERGENCE, Rate 50 g/ha): 7
- Plant response rating, Giant foxtail (giant foxtail; Rate 200 g/ha, POSTEMERGENCE): 9
- Plant response rating, Giant foxtail (giant foxtail; Rate 200 g/ha, PREEMERGENCE): 8
- Plant response rating, Corn (corn; 62 g/ha): 50
- Plant response rating, Corn (corn; 250 g/ha): 90
- Plant response rating (0 to 100), Corn (corn; Rate 4 g/ha): 30
- Plant response rating (0 to 100), Corn (corn; Rate 16 g/ha): 40
- Plant response rating, Barnyardgrass (barnyardgrass; POSTEMERGENCE, Rate 50 g/ha): 8
- Plant response rating, Barnyardgrass (barnyardgrass; POSTEMERGENCE, Rate 200 g/ha): 10
- Plant response rating, Barnyardgrass (barnyardgrass; PREEMERGENCE, Rate 50 g/ha): 5
- Plant response rating, Barnyardgrass (barnyardgrass; Rate 200 g/ha, PREEMERGENCE): 8
- Plant response rating (0 to 100), Rice Japonica (rice; POSTEMERGENCE section, flood test, Rate 4 g/ha): 10
- Plant response rating (0 to 100), Rice Japonica (rice; Rate 16 g/ha, under POSTEMERGENCE head (flood test species)): 30
- Plant response rating Rice Japonica (rice; 62 g/ha): 60
- Plant response rating Rice Japonica (rice; 250 g/ha): 85
- Plant response rating, Wild buckwheat (wild buckwheat; 62 g/ha): 100
- Plant response rating, Wild buckwheat (wild buckwheat; 250 g/ha): 100
- Plant response rating (0 to 100), Wild buckwheat (wild buckwheat; Rate 4 g/ha): 70
- Plant response rating (0 to 100), Wild buckwheat (wild buckwheat; Rate 16 g/ha): 90
- Plant response rating, Wild oat (wild oat; 62 g/ha): 50
- Plant response rating, Wild oat (wild oat; 250 g/ha): 60
- Plant response rating (0 to 100), Wild oat (wild oat; Rate 4 g/ha): 20
- Plant response rating (0 to 100), Wild oat (wild oat; Rate 16 g/ha): 30
- Plant response rating, Crabgrass (crabgrass; POSTEMERGENCE, Rate 200 g/ha): 10
- Plant response rating, Crabgrass (crabgrass; PREEMERGENCE, Rate 50 g/ha): 3
- Plant response rating, Crabgrass (crabgrass; Rate 200 g/ha, PREEMERGENCE): 9
- Plant response rating, Morningglory (morningglory; 62 g/ha): 95
- Plant response rating, Morningglory (morningglory; 250 g/ha): 100
- Plant response rating (0 to 100), Morningglory (morningglory; Rate 4 g/ha): 50
- Plant response rating (0 to 100), Morningglory (morningglory; Rate 16 g/ha): 70
